Data taken from patent US20240025922A1, “TETRAHYDROPYRIDO[3,4-d]PYRIMIDINES AS HPK1 INHIBITORS” (Merck Patent GmbH, priority 2022, published 2024).
Like-named read-outs stand apart in the source and are kept apart here.

Legend:
[1] = target: full-length human HPK1 (MAP4K1) (Homo sapiens (Human), UniProt Q92918); assay: HPK1 Kinase Assay (Biochemical Assay), ADP-Glo; conditions: GST-HPK1 3.2 nM, 10 μM ATP, MBP substrate, read-out: HPK1 enzymatic IC50
Summary of the method: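 GST-tagged full-length human HPK1 was expressed in Sf21 cells and used at 3.2 nM in 50 mM HEPES pH 7.5, 10 mM MgCl2, 2 mM DTT, 12.5 mM O-glycerophosphate, 0.01% BSA and 0.02% Brij-35. It was preincubated 15 min with 10-point compound dilutions, and the reaction was started with a start mix of 10 μM ATP and 3.235 μM MBP. After 120 min, ADP was measured by ADP-Glo luminescence and IC50 derived.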

[2] = target: HPK1 (SLP76 phosphorylation at Ser376 in Jurkat and EL-4 cells) (Homo sapiens, UniProt Q92918); assay type: cell-based
Chain of HPK1 (SLP76 phosphorylation at Ser376 in Jurkat and EL-4 cells) (Q92918 whole entry, looked up): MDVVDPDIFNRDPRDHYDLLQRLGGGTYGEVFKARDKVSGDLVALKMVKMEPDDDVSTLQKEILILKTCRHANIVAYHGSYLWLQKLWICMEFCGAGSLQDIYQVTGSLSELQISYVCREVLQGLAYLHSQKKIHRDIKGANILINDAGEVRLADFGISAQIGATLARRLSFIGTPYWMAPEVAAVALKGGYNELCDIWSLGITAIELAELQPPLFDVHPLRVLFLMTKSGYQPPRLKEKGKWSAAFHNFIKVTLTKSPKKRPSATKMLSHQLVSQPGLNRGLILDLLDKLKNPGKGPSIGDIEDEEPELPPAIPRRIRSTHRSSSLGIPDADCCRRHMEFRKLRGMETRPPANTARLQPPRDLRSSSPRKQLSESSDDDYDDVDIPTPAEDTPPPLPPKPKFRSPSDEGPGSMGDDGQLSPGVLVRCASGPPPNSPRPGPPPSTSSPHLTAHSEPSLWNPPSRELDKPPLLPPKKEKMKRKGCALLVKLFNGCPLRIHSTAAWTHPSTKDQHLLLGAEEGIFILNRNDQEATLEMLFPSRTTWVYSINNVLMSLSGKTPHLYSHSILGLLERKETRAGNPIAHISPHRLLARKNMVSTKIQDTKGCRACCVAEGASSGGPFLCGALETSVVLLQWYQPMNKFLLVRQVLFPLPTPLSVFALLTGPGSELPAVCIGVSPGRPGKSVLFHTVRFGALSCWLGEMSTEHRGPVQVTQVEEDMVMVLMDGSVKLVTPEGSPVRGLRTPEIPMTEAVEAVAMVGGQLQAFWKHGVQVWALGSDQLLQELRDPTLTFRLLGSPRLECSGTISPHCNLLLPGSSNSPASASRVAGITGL
Summary of the method: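 Jurkat (human) and EL-4 (mouse) cells, endogenous HPK1/SLP76, preincubated 60 min with compounds (10-point dilution), then stimulated with αCD3/αCD28 beads at 37 °C: 15 min for Jurkat, 30 min for EL-4. Ser376 pSLP76 in lysates read by AlphaLISA (Jurkat) or HTRF (EL-4); % inhibition and IC50 fitted.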

[3] = αCD3/αCD28 Dynabeads stimulated cells, pSLP76 (Ser376) detection; read-out: HPK1 pSLP76 IC50

Chain of full-length human HPK1 (MAP4K1) (Q92918 whole entry): as the sequence (Q92918 whole entry, looked up) above

IC50 [1]	IC50 [2, 3]	Compound	IC50 ([2]; read-out: HPK1 pSLP76 IC50; αCD3/αCD28 Dynabeads stimulated cells, pSLP76 (Ser376) detection)
< 100 nM	< 500 nM	Cc1c(N2CCc3cnc(Nc4ccc(CC(=O)N5CC(F)(F)C5)cc4)nc3C2)cnc2c1NCCO2 [Example 151, 1-(3,3-difluoroazetidin-1-yl)-2-{4-[(7-{8-methyl-1H,2H,3H-pyrido[2,3-b][1,4]oxazin-7-yl}-5H,6H,7H,8H-pyrido[3,4-d]pyrimidin-2-yl)amino]phenyl}ethan-1-one]	
< 100 nM	< 500 nM	Cc1c(N2CCc3cnc(Nc4ccc(CS(=O)(=O)CCN(C)C)cc4)nc3C2)cnc2c1NCCO2 [Example 154, N-(4-{[2-(dimethylamino)ethanesulfonyl]methyl}phenyl)-7-{8-methyl-1H,2H,3H-pyrido[2,3-b][1,4]oxazin-7-yl}-5H,6H,7H,8H-pyrido[3,4-d]pyrimidin-2-amine]	
< 100 nM	< 500 nM	Cc1c(N2CCc3cnc(Nc4ccc(CC(=O)N5CC(F)C5)cc4)nc3C2)cnc2c1NCCO2 [Example 155, 1-(3-fluoroazetidin-1-yl)-2-{4-[(7-{8-methyl-1H,2H,3H-pyrido[2,3-b][1,4]oxazin-7-yl}-5H,6H,7H,8H-pyrido[3,4-d]pyrimidin-2-yl)amino]phenyl}ethan-1-one]	
< 100 nM	< 500 nM	Cc1c(N2CCc3cnc(Nc4ccc(CCS(C)(=O)=O)cc4)nc3C2)cnc2c1NCCO2 [Example 161, N-[4-(2-methanesulfonylethyl)phenyl]-7-{8-methyl-1H,2H,3H-pyrido[2,3-b][1,4]oxazin-7-yl}-5H,6H,7H,8H-pyrido[3,4-d]pyrimidin-2-amine]	
< 100 nM	< 500 nM	Cc1c(N2CCc3cnc(Nc4ccc(CC(=O)N5CCC5)cc4)nc3C2)cnc2c1NCCO2 [Example 163, 1-(azetidin-1-yl)-2-(4-((7-(8-methyl-2,3-dihydro-1H-pyrido[2,3-b][1,4]oxazin-7-yl)-5,6,7,8-tetrahydropyrido[3,4-d]pyrimidin-2-yl)amino)phenyl)ethan-1-one]	
< 100 nM	< 500 nM	Cc1c(N2CCc3cnc(Nc4ccc(CC(=O)N5CC6(COC6)C5)cc4)nc3C2)cnc2c1NCCO2 [Example 164, 2-{4-[(7-{8-methyl-1H,2H,3H-pyrido[2,3-b][1,4]oxazin-7-yl}-5H,6H,7H,8H-pyrido[3,4-d]pyrimidin-2-yl)amino]phenyl}-1-{2-oxa-6-azaspiro[3.3]heptan-6-yl}ethan-1-one]	
< 100 nM	< 500 nM	Cc1c(N2CCc3cnc(Nc4ccc(CC(=O)N5CC(C)(O)C5)cc4)nc3C2)cnc2c1NCCO2 [Example 173, 1-(3-hydroxy-3-methylazetidin-1-yl)-2-{4-[(7-{8-methyl-1H,2H,3H-pyrido[2,3-b][1,4]oxazin-7-yl}-5H,6H,7H,8H-pyrido[3,4-d]pyrimidin-2-yl)amino]phenyl}ethan-1-one]	
< 100 nM	< 500 nM	Cc1c(N2CCc3cnc(Nc4ccc(CC(=O)N5CC(OC(C)C)C5)cc4)nc3C2)cnc2c1NCCO2 [Example 174, 2-{4-[(7-{8-methyl-1H,2H,3H-pyrido[2,3-b][1,4]oxazin-7-yl}-5H,6H,7H,8H-pyrido[3,4-d]pyrimidin-2-yl)amino]phenyl}-1-[3-(propan-2-yloxy)azetidin-1-yl]ethan-1-one]	
< 100 nM	< 500 nM	COCC1CN(C(=O)Cc2ccc(Nc3ncc4c(n3)CN(c3cnc5c(c3C)NCCO5)CC4)cc2)C1 [Example 175, 1-[3-(methoxymethyl)azetidin-1-yl]-2-{4-[(7-{8-methyl-1H,2H,3H-pyrido[2,3-b][1,4]oxazin-7-yl}-5H,6H,7H,8H-pyrido[3,4-d]pyrimidin-2-yl)amino]phenyl}ethan-1-one]	
< 100 nM	< 500 nM	COC1CN(C(=O)Cc2ccc(Nc3ncc4c(n3)CN(c3cnc5c(c3C)NCCO5)CC4)cc2)C1 [Example 181, 1-(3-methoxyazetidin-1-yl)-2-{4-[(7-{8-methyl-1H,2H,3H-pyrido[2,3-b][1,4]oxazin-7-yl}-5H,6H,7H,8H-pyrido[3,4-d]pyrimidin-2-yl)amino]phenyl}ethan-1-one]	
< 100 nM	< 500 nM	Cc1c(N2CCc3cnc(Nc4ccc(C(C)(C)C#N)cc4)nc3C2)cnc2c1NCCO2 [Example 182, 2-methyl-2-(4-((7-(8-methyl-2,3-dihydro-1H-pyrido[2,3-b][1,4]oxazin-7-yl)-5,6,7,8-tetrahydropyrido[3,4-d]pyrimidin-2-yl)amino)phenyl)propanenitrile]	
< 100 nM	< 500 nM	Cc1c(N2CCc3cnc(Nc4ccc(Cn5ccnn5)cc4)nc3C2)cnc2c1NCCO2 [Example 183, 7-{8-methyl-1H,2H,3H-pyrido[2,3-b][1,4]oxazin-7-yl}-N-{4-[(1H-1,2,3-triazol-1-yl)methyl]phenyl}-5H,6H,7H,8H-pyrido[3,4-d]pyrimidin-2-amine]	

More lines, now with the values behind:

Compound	IC50 [1]	IC50 [2, 3]	IC50 ([2]; read-out: HPK1 pSLP76 IC50; αCD3/αCD28 Dynabeads stimulated cells, pSLP76 (Ser376) detection)
Cc1c(N2CCc3cnc(Nc4ccc(CS(=O)(=O)N(C)C)cc4)cc3C2)cnc2c1NCCO2 [Example 150, N,N-dimethyl-1-{4-[(6-{8-methyl-1H,2H,3H-pyrido[2,3-b][1,4]oxazin-7-yl}-5,6,7,8-tetrahydro-2,6-naphthyridin-3-yl)amino]phenyl}methanesulfonamide]	< 100 nM	< 500 nM	
Cc1c(N2Cc3nc(Nc4ccc(CS(C)(=O)=O)cc4)ncc3C(F)(F)C2)cnc2c1NCCO2 [Example 152, 5,5-difluoro-N-[4-(methanesulfonylmethyl)phenyl]-7-{8-methyl-1H,2H,3H-pyrido[2,3-b][1,4]oxazin-7-yl}-5H,6H,7H,8H-pyrido[3,4-d]pyrimidin-2-amine]	< 100 nM	< 500 nM	
COCCN1CCc2cc(Nc3cc4c(cn3)CCN(c3cnc5c(c3C)NCCO5)C4)nn2CC1=O [Example 153, 6-(2-methoxyethyl)-2-[(6-{8-methyl-1H,2H,3H-pyrido[2,3-b][1,4]oxazin-7-yl}-5,6,7,8-tetrahydro-2,6-naphthyridin-3-yl)amino]-4H,5H,6H,7H,8H-pyrazolo[1,5-d][1,4]diazepin-7-one]	< 100 nM	< 500 nM	
Cc1c(N2CCc3cnc(Nc4ccc5c(c4)CN(C)S(=O)(=O)C5)nc3C2)cnc2c1NCCO2 [Example 156, 3-methyl-6-[(7-{8-methyl-1H,2H,3H-pyrido[2,3-b][1,4]oxazin-7-yl}-5H,6H,7H,8H-pyrido[3,4-d]pyrimidin-2-yl)amino]-3,4-dihydro-1H-2?6,3-benzothiazine-2,2-dione]	< 100 nM	< 500 nM	
COCCOCC(=O)Nc1ccc(Nc2ncc3c(n2)CN(c2cnc4c(c2C)NCCO4)CC3)cc1C [Example 162, 2-(2-methoxyethoxy)-N-{2-methyl-4-[(7-{8-methyl-1H,2H,3H-pyrido[2,3-b][1,4]oxazin-7-yl}-5H,6H,7H,8H-pyrido[3,4-d]pyrimidin-2-yl)amino]phenyl}acetamide]	< 100 nM	< 500 nM	
Cc1c(N2CCc3cnc(Nc4ccc(CC(=O)N5CC(N6CCOCC6)C5)cc4)nc3C2)cnc2c1NCCO2 [Example 165, 2-{4-[(7-{8-methyl-1H,2H,3H-pyrido[2,3-b][1,4]oxazin-7-yl}-5H,6H,7H,8H-pyrido[3,4-d]pyrimidin-2-yl)amino]phenyl}-1-[3-(morpholin-4-yl)azetidin-1-yl]ethan-1-one]	< 100 nM	< 500 nM	
Cc1c(N2CCc3cnc(Nc4cccc(CS(C)(=N)=O)c4)nc3C2)cnc2c1NCCO2 (stereo not drawn) [Example 168, imino(methyl)(3-((7-(8-methyl-2,3-dihydro-1H-pyrido[2,3-b][1,4]oxazin-7-yl)-5,6,7,8-tetrahydropyrido[3,4-d]pyrimidin-2-yl)amino)benzyl)-16-sulfanone]	< 100 nM	< 500 nM	
Cc1c(N2CCc3cnc(Nc4ccc(CS(C)(=O)=O)cc4)nc3C2)cnc2nc[nH]c12 [Example 171, N-[4-(methanesulfonylmethyl)phenyl]-7-{7-methyl-1H-imidazo[4,5-b]pyridin-6-yl}-5H,6H,7H,8H-pyrido[3,4-d]pyrimidin-2-amine]	< 100 nM		500 to 1000 nM
Cc1c(N2CCc3cnc(Nc4ccc(CS(=O)(=O)C5CC5)cn4)cc3C2)cnc2c1NCCO2 [Example 176, N-{5-[(cyclopropanesulfonyl)methyl]pyridin-2-yl}-6-{8-methyl-1H,2H,3H-pyrido[2,3-b][1,4]oxazin-7-yl}-5,6,7,8-tetrahydro-2,6-naphthyridin-3-amine]	< 100 nM	< 500 nM	
Cc1cc(Nc2ncc3c(n2)CN(c2cnc4c(c2C)NCCO4)CC3)ccc1CS(C)(=O)=O [Example 178, N-[4-(methanesulfonylmethyl)-3-methylphenyl]-7-{8-methyl-1H,2H,3H-pyrido[2,3-b][1,4]oxazin-7-yl}-5H,6H,7H,8H-pyrido[3,4-d]pyrimidin-2-amine]	< 100 nM	< 500 nM	
Cc1cc(Nc2cc3c(cn2)CCN(c2cnc4c(c2C)NCCO4)C3)ccc1CS(C)(=O)=O [Example 179, N-[4-(methanesulfonylmethyl)-3-methylphenyl]-6-{8-methyl-1H,2H,3H-pyrido[2,3-b][1,4]oxazin-7-yl}-5,6,7,8-tetrahydro-2,6-naphthyridin-3-amine]	< 100 nM	< 500 nM	
Cc1c(N2CCc3cnc(Nc4ccc(CS(C)(=O)=O)cc4)nc3C2C)cnc2c1NCCO2 (stereo not drawn) [Example 180, N-[4-(methanesulfonylmethyl)phenyl]-8-methyl-7-{8-methyl-1H,2H,3H-pyrido[2,3-b][1,4]oxazin-7-yl}-5H,6H,7H,8H-pyrido[3,4-d]pyrimidin-2-amine]	< 100 nM	< 500 nM	
